From patent US4684664A, “Derivatives of β-(4-isocyano-1,2,3,4-diepoxycyclopentyl) acrylic acid” (Kureha Kagaku Kogyo Kabushiki Kaisha, priority 1984, dated 1987)
Values after ≈ are worked out from the molar mass of the structure shown.

Experiments:
Type in all cases: cell-based
[1] = test system: Proteus mirabilis IFO 3849; assay: Antibacterial activity, agar-dilution MIC, organism No. 19; settings: Proteus mirabilis, IFO3849; Organism No. 19, bouillon-agar; read-out: Minimum Inhibitory Concentration
Outline: (§1)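 Endpoint: MIC in μg/ml of culture medium. Method: agar dilution. Medium: bouillon agar.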

[2] = test system: Salmonella enteritidis G 14; assay: Antibacterial activity, agar-dilution MIC, organism No. 12; settings: Salmonella enterica, ENTERITIDIS; Organism No. 12, bouillon-agar; read-out: Minimum Inhibitory Concentration
Outline: as §1

[3] = test system: Enterobacter aerogenes ATCC 13048; assay: Antibacterial activity, agar-dilution MIC, organism No. 23; settings: Klebsiella aerogenes, ATCC13048; Organism No. 23, bouillon-agar; read-out: Minimum Inhibitory Concentration
Outline: as §1

[4] = test system: Proteus morganii IFO 3848; assay: Antibacterial activity, agar-dilution MIC, organism No. 18; settings: Morganella morganii, IFO3848; Organism No. 18, bouillon-agar; read-out: Minimum Inhibitory Concentration
Outline: as §1

[5] = test system: Klebsiella pneumoniae PCI-602; assay: Antibacterial activity, agar-dilution MIC, organism No. 7; settings: Klebsiella pneumoniae, PCI602; Organism No. 7, bouillon-agar; read-out: Minimum Inhibitory Concentration
Outline: as §1

[6] = test system: Pseudomonas aeruginosa PAO 1; assay: Antibacterial activity, agar-dilution MIC, organism No. 17; settings: Pseudomonas aeruginosa, PAO1; Organism No. 17, bouillon-agar; read-out: Minimum Inhibitory Concentration
Outline: as §1

Proteus vulgaris HX-19 = assay: Antibacterial activity, agar-dilution MIC, organism No. 21; settings: Proteus vulgaris, HX19; Organism No. 21, bouillon-agar; read-out: Minimum Inhibitory Concentration
Outline: as §1

[7] = test system: Staphylococcus aureus FDA 209PJc-1; assay: Antibacterial activity, agar-dilution MIC, organism No. 1; settings: Staphylococcus aureus, FDA209PJC1; Organism No. 1, bouillon-agar; read-out: Minimum Inhibitory Concentration
Outline: as §1

[8] = test system: Pseudomonas aeruginosa NCTC 10490; assay: Antibacterial activity, agar-dilution MIC, organism No. 16; settings: Pseudomonas aeruginosa, NCTC10490; Organism No. 16, bouillon-agar; read-out: Minimum Inhibitory Concentration
Outline: as §1

[9] = test system: Streptococcus faecium IFO 3826; assay: Antibacterial activity, agar-dilution MIC, organism No. 27; settings: Enterococcus faecium, IFO3826; Organism No. 27, bouillon-agar; read-out: Minimum Inhibitory Concentration
Outline: as §1

[10] = test system: Escherichia coli NIHJ-JC-2; assay: Antibacterial activity, agar-dilution MIC, organism No. 5; settings: Escherichia coli, NIHJJC2; Organism No. 5, bouillon-agar; read-out: Minimum Inhibitory Concentration
Outline: as §1

[11] = test system: Salmonella paratyphi-A 1015; assay: Antibacterial activity, agar-dilution MIC, organism No. 10; settings: Salmonella enterica, PARATYPHI, read-out: Minimum Inhibitory Concentration
Outline: as §1

Enterobacter cloacae 963 = assay: Antibacterial activity, agar-dilution MIC, organism No. 24; settings: Enterobacter cloacae, 963; Organism No. 24, bouillon-agar; read-out: Minimum Inhibitory Concentration
Outline: as §1

[12] = test system: Bacillus subtilis ATCC 6633; assay: Antibacterial activity, agar-dilution MIC, organism No. 14; settings: Bacillus subtilis, ATCC6633; Organism No. 14, bouillon-agar; read-out: Minimum Inhibitory Concentration
Outline: as §1

[13] = test system: Serratia marcescens IAM 1184; assay: Antibacterial activity, agar-dilution MIC, organism No. 13; settings: Serratia marcescens, IAM1184; Organism No. 13, bouillon-agar; read-out: Minimum Inhibitory Concentration
Outline: as §1

[14] = test system: Streptococcus pyogenes Cook; assay: Antibacterial activity, agar-dilution MIC, organism No. 4; settings: Streptococcus pyogenes; Organism No. 4, bouillon-agar; read-out: Minimum Inhibitory Concentration
Outline: as §1

[15] = test system: Micrococcus luteus ATCC 9341; assay: Antibacterial activity, agar-dilution MIC, organism No. 25; settings: Micrococcus luteus, ATCC9341; Organism No. 25, bouillon-agar; read-out: Minimum Inhibitory Concentration
Outline: as §1

[16] = test system: Escherichia coli K12 C600 IAM 1264; assay: Antibacterial activity, agar-dilution MIC, organism No. 6; settings: Escherichia coli, IAM1264; Organism No. 6, bouillon-agar; read-out: Minimum Inhibitory Concentration
Outline: as §1

Salmonella typhi 901 = assay: Antibacterial activity, agar-dilution MIC, organism No. 9; settings: Salmonella enterica, TYPHI, read-out: Minimum Inhibitory Concentration
Outline: as §1

[17] = test system: Staphylococcus aureus MS 353; assay: Antibacterial activity, agar-dilution MIC, organism No. 3; settings: Staphylococcus aureus, MS353; Organism No. 3, bouillon-agar; read-out: Minimum Inhibitory Concentration
Outline: as §1

[18] = test system: Pseudomonas aeruginosa IFO 3445; assay: Antibacterial activity, agar-dilution MIC, organism No. 15; settings: Pseudomonas aeruginosa, IFO3445; Organism No. 15, bouillon-agar; read-out: Minimum Inhibitory Concentration
Outline: as §1

[19] = test system: Mycoplasma pneumoniae IID817; assay: Antimycoplasmal activity, MIC by phenol red colour change, organism No. 28; settings: Mycoplasma, IID817; Organism No. 28, PPLO broth + 1% glucose, 37° C.; read-out: Minimum Inhibitory Concentration (MIC)
Procedure: Mycoplasma pneumoniae IID817 was used as the test microorganism in a culture medium prepared by adding 1% of glucose to "PPLO broth (manufactured by Difco Co.) liquid culture medium" at 37° C. with phenol red as an indicator, thereby culturing the test microorganism.

[20] = test system: Staphylococcus aureus Terajima; assay: Antibacterial activity, agar-dilution MIC, organism No. 2; settings: Staphylococcus aureus; Organism No. 2, bouillon-agar; read-out: Minimum Inhibitory Concentration
Outline: as §1

[21] = test system: Proteus rettgeri IFO 3850; assay: Antibacterial activity, agar-dilution MIC, organism No. 22; settings: Providencia rettgeri, IFO3850; Organism No. 22, bouillon-agar; read-out: Minimum Inhibitory Concentration
Outline: as §1

[22] = test system: Salmonella shottmuelleri 8006; assay: Antibacterial activity, agar-dilution MIC, organism No. 11; settings: Salmonella, 8006; Organism No. 11, bouillon-agar; read-out: Minimum Inhibitory Concentration
Outline: as §1

[23] = test system: Streptococcus pyogenes IFO 3340; assay: Antibacterial activity, agar-dilution MIC, organism No. 26; settings: Streptococcus pyogenes, IFO3340; Organism No. 26, bouillon-agar; read-out: Minimum Inhibitory Concentration
Outline: as §1

[24] = test system: Salmonella typhimurium IID 971; assay: Antibacterial activity, agar-dilution MIC, organism No. 8; settings: Salmonella enterica; Organism No. 8, bouillon-agar; read-out: Minimum Inhibitory Concentration
Outline: as §1

[25] = test system: Aspergillus niger IFO 6342; assay: Antifungal activity, agar-dilution MIC, organism No. 30; settings: Aspergillus niger, IFO6342; Organism No. 30, bouillon-agar; read-out: Minimum Inhibitory Concentration
Outline: as §1

[26] = test system: Candida albicans IAM 4905; assay: Antifungal activity, agar-dilution MIC, organism No. 29; settings: Candida albicans, IAM4905; Organism No. 29, bouillon-agar; read-out: Minimum Inhibitory Concentration
Outline: as §1

Proteus vulgaris OX-19 = assay: Antibacterial activity, agar-dilution MIC, organism No. 20; settings: Proteus vulgaris, OX19; Organism No. 20, bouillon-agar; read-out: Minimum Inhibitory Concentration
Outline: as §1

| SMILES | MIC [1] | MIC [2] | MIC [3] | MIC [4] | MIC [5] | MIC [6] | MIC (Proteus vulgaris HX-19) | MIC [7] | MIC [8] | MIC [9] | MIC [10] | MIC [11] | MIC (Enterobacter cloacae 963) | MIC [12] | MIC [13] | MIC [14] | MIC [15] | MIC [16] | MIC (Salmonella typhi 901) | MIC [17] | further results |
| --- | --- | --- | --- | --- | --- | --- | --- | --- | --- | --- | --- | --- | --- | --- | --- | --- | --- | --- | --- | --- | --- |
| [C-]#[N+]C12CC3(/C=C/C(=O)OCc4ccccc4[N+](=O)[O-])OC3C1O2 (stereo not drawn) [compound 13] | > 200 µg/mL | 200 µg/mL (≈ 609 µM) | > 200 µg/mL | 12.5 µg/mL (≈ 38.1 µM) | 25 µg/mL (≈ 76.2 µM) | > 200 µg/mL | 0.1 µg/mL (≈ 0.305 µM) | 0.39 µg/mL (≈ 1.19 µM) | > 200 µg/mL | 0.78 µg/mL (≈ 2.38 µM) | 100 µg/mL (≈ 305 µM) | 25 µg/mL (≈ 76.2 µM) | > 200 µg/mL | 25 µg/mL (≈ 76.2 µM) | 100 µg/mL (≈ 305 µM) | 100 µg/mL (≈ 305 µM) | < 0.1 µg/mL | 100 µg/mL (≈ 305 µM) | 50 µg/mL (≈ 152 µM) | 0.39 µg/mL (≈ 1.19 µM) | MIC [18]: > 200 µg/mL; MIC [19]: 0.2 µg/mL; MIC [20]: 0.39 µg/mL (≈ 1.19 µM); MIC [21]: 100 µg/mL (≈ 305 µM); MIC [22]: 12.5 µg/mL (≈ 38.1 µM); MIC [23]: 100 µg/mL (≈ 305 µM); MIC [24]: 200 µg/mL (≈ 609 µM); MIC [25]: 6.25 µg/mL (≈ 19 µM); MIC [26]: 0.8 µg/mL (≈ 2.44 µM); MIC (Proteus vulgaris OX-19): 25 µg/mL (≈ 76.2 µM) |
| [C-]#[N+]C12CC3(/C=C/C(=O)OCc4cccc([N+](=O)[O-])c4)OC3C1O2 (stereo not drawn) [compound 14] | > 200 µg/mL | > 200 µg/mL | > 200 µg/mL | 200 µg/mL (≈ 609 µM) | 200 µg/mL (≈ 609 µM) | > 200 µg/mL | 12.5 µg/mL (≈ 38.1 µM) | 200 µg/mL (≈ 609 µM) | > 200 µg/mL | 200 µg/mL (≈ 609 µM) | > 200 µg/mL | 200 µg/mL (≈ 609 µM) | > 200 µg/mL | 200 µg/mL (≈ 609 µM) | > 200 µg/mL | > 200 µg/mL | 0.78 µg/mL (≈ 2.38 µM) | > 200 µg/mL | 200 µg/mL (≈ 609 µM) | 200 µg/mL (≈ 609 µM) | MIC [18]: > 200 µg/mL; MIC [19]: 3.13 µg/mL; MIC [20]: 200 µg/mL (≈ 609 µM); MIC [21]: > 200 µg/mL; MIC [22]: 200 µg/mL (≈ 609 µM); MIC [23]: > 200 µg/mL; MIC [24]: > 200 µg/mL; MIC [25]: 25 µg/mL (≈ 76.2 µM); MIC [26]: 12.5 µg/mL (≈ 38.1 µM); MIC (Proteus vulgaris OX-19): 200 µg/mL (≈ 609 µM) |
| [C-]#[N+]C12CC3(/C=C/C(=O)OCc4ccc([N+](=O)[O-])cc4)OC3C1O2 (stereo not drawn) [compound 15] | 100 µg/mL (≈ 305 µM) | 50 µg/mL (≈ 152 µM) | > 100 µg/mL | 25 µg/mL (≈ 76.2 µM) | 12.5 µg/mL (≈ 38.1 µM) | > 100 µg/mL | < 0.1 µg/mL | 25 µg/mL (≈ 76.2 µM) | > 100 µg/mL | 25 µg/mL (≈ 76.2 µM) | 50 µg/mL (≈ 152 µM) | 25 µg/mL (≈ 76.2 µM) | > 100 µg/mL | 50 µg/mL (≈ 152 µM) | > 100 µg/mL | 50 µg/mL (≈ 152 µM) | < 0.1 µg/mL | 50 µg/mL (≈ 152 µM) | 25 µg/mL (≈ 76.2 µM) | 25 µg/mL (≈ 76.2 µM) | MIC [18]: > 100 µg/mL; MIC [19]: 12 µg/mL; MIC [20]: 50 µg/mL (≈ 152 µM); MIC [21]: > 100 µg/mL; MIC [22]: 12.5 µg/mL (≈ 38.1 µM); MIC [23]: 50 µg/mL (≈ 152 µM); MIC [24]: 50 µg/mL (≈ 152 µM); MIC [25]: 6.25 µg/mL (≈ 19 µM); MIC [26]: 6.25 µg/mL (≈ 19 µM); MIC (Proteus vulgaris OX-19): 6.25 µg/mL (≈ 19 µM) |
| [C-]#[N+]C12CC3(/C=C/C(=O)OCC(C)C)OC3C1O2 (stereo not drawn) [compound 18] | 6.25 µg/mL (≈ 25.1 µM) | 6.25 µg/mL (≈ 25.1 µM) | > 200 µg/mL | 3.13 µg/mL (≈ 12.6 µM) | 1.56 µg/mL (≈ 6.26 µM) | > 200 µg/mL | 0.1 µg/mL (≈ 0.401 µM) | 0.39 µg/mL (≈ 1.56 µM) | 200 µg/mL (≈ 802 µM) | 12.5 µg/mL (≈ 50.1 µM) | 12.5 µg/mL (≈ 50.1 µM) | 1.56 µg/mL (≈ 6.26 µM) | 200 µg/mL (≈ 802 µM) | 0.78 µg/mL (≈ 3.13 µM) | 200 µg/mL (≈ 802 µM) | 0.78 µg/mL (≈ 3.13 µM) | 1.56 µg/mL (≈ 6.26 µM) | 12.5 µg/mL (≈ 50.1 µM) | 3.13 µg/mL (≈ 12.6 µM) | 3.13 µg/mL (≈ 12.6 µM) | MIC [18]: > 200 µg/mL; MIC [19]: < 0.2 µg/mL; MIC [20]: 12.5 µg/mL (≈ 50.1 µM); MIC [21]: 100 µg/mL (≈ 401 µM); MIC [22]: 0.78 µg/mL (≈ 3.13 µM); MIC [23]: 1.56 µg/mL (≈ 6.26 µM); MIC [24]: 12.5 µg/mL (≈ 50.1 µM); MIC [25]: 0.78 µg/mL (≈ 3.13 µM); MIC [26]: 0.2 µg/mL (≈ 0.802 µM); MIC (Proteus vulgaris OX-19): 0.2 µg/mL (≈ 0.802 µM) |
